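Following 48 hours of exposure in 96-well plates, responses at five concentrations were used to interpolate endpoints linearly. TGI: concentration producing complete growth inhibition.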
Legend:
Experiment in all cases: NCI anticancer screen, dose series, 48 h
[1] = tested on: SW-620 colon
[2] = tested on: HCT-15 colon
[3] = tested on: U251 CNS
[4] = tested on: OVCAR-5 ovarian
[5] = tested on: HL-60(TB) leukemia
[6] = tested on: SK-MEL-28 melanoma
[7] = tested on: NCI/ADR-RES ovarian
[8] = tested on: SR leukemia
[9] = tested on: 786-0 renal
[10] = tested on: TK-10 renal
[11] = tested on: SN12C renal
[12] = tested on: LOX IMVI melanoma

Row | Structure (SMILES) | TGI [1] | TGI [2] | TGI [3] | TGI [4] | TGI [5] | TGI [6] | TGI [7] | TGI [8] | TGI [9] | TGI [10] | TGI [11] | TGI [12]
1 | S=C(Nc1cccc(Cl)c1)Nc1ccccn1 | > 100 µM | > 100 µM | > 100 µM | > 100 µM | > 100 µM | > 100 µM | > 100 µM | > 100 µM | > 100 µM | > 100 µM | > 100 µM | > 100 µM
2 | O=C(Nc1nc(C23CC4CC(CC(C4)C2)C3)cs1)c1cc2cc(Br)cc(Br)c2oc1=O | > 100 µM | > 100 µM | 41.5 µM | > 100 µM | > 100 µM | > 100 µM | > 100 µM | > 100 µM | > 100 µM | > 100 µM | > 100 µM | > 100 µM
3 | O=C(CCCn1ccnc1[N+](=O)[O-])NCCn1ccnc1 | > 100 µM | > 100 µM | > 100 µM | > 100 µM | > 100 µM | > 100 µM | > 100 µM | > 100 µM | > 100 µM | > 100 µM | > 100 µM | –
4 | COC(=N)C12C(N)=NC(OC)(OC)C1(C#N)C21C(=O)N(c2ccccc2)N=C1C (stereo not drawn) | > 100 µM | > 100 µM | > 100 µM | > 100 µM | > 100 µM | > 100 µM | > 100 µM | > 100 µM | > 100 µM | – | > 100 µM | –
5 | CCCCCCCCCCCCCCCCP(=O)(O)OP(=O)(O)OCC1OC(n2cnc3c(N)ncnc32)C(O)C1O (stereo not drawn) | 88.1 µM | 59.4 µM | 41.1 µM | 29.2 µM | > 100 µM | > 100 µM | 98.6 µM | > 100 µM | 53.2 µM | 34.3 µM | 59.5 µM | 70.5 µM
6 | c1ccc2sc(C3(N4CCCCC4)CCCC3)cc2c1 | 24.1 µM | 21.6 µM | – | 24.7 µM | 19.1 µM | 28.7 µM | 24.8 µM | 22.3 µM | 28.9 µM | 28.5 µM | 33.1 µM | 32.7 µM
7 | O=[N+]([O-])C(=C(N1CCOCC1)N1CCOCC1)/C(Cl)=C(\Cl)[N+](=O)[O-] | 5.27 µM | 8.18 µM | 37.8 µM | 31.4 µM | – | 28.9 µM | 54.2 µM | > 100 µM | 9.76 µM | 3.89 µM | 5.92 µM | 5.19 µM
8 | Cc1cc2c(s1)C(=O)c1sccc1C2=O | 0.719 µM | 2.52 µM | 2.55 µM | 3.29 µM | > 100 µM | 0.377 µM | 1.64 µM | > 100 µM | 3.26 µM | 6.91 µM | 1.25 µM | 0.422 µM
9 | O=C1N=C(c2ccccc2)O/C1=C\c1ccccc1 | > 100 µM | > 100 µM | > 100 µM | > 100 µM | > 100 µM | > 100 µM | > 100 µM | > 100 µM | > 100 µM | > 100 µM | > 100 µM | > 100 µM
10 | CCCCCc1c2nc(c(CCCCC)c3ccc([nH]3)c(CCCCC)c3ccc([nH]3)c(CCCCC)c3nc1C=C3)C=C2 | > 100 µM | > 100 µM | > 100 µM | > 100 µM | > 100 µM | > 100 µM | > 100 µM | > 100 µM | > 100 µM | > 100 µM | > 100 µM | > 100 µM
11 | C=C(C)[C@@H]1CC[C@]2(C(=O)O)CC[C@]3(C)[C@H](CC[C@@H]4[C@@]5(C)CC[C@H](C(=O)/C=C/c6ccc(O)cc6)C(C)(C)[C@@H]5CC[C@]43C)[C@@H]12 | 15.2 µM | 17.3 µM | > 100 µM | 23.7 µM | 12.7 µM | 26.5 µM | 29.3 µM | > 100 µM | > 100 µM | 20.9 µM | 10.4 µM | 22.4 µM
12 | CC(=O)Nc1ccc2c(C)c3c4ccccc4n(C)c3nc2n1 | 46.6 µM | 48.6 µM | – | 51.6 µM | 41.2 µM | – | > 100 µM | 45.6 µM | 35.3 µM | 94.8 µM | 43.3 µM | 34.2 µM
13 | CCCCc1c2c(nc3c1CCC/C3=C\c1ccccc1)C(=O)C(CN(C)C)CC2 (stereo not drawn) | 31.5 µM | 20.7 µM | 32.5 µM | 33.8 µM | 18.2 µM | 28.3 µM | 91.7 µM | 9.17 µM | 23.9 µM | 29.6 µM | 43.1 µM | 30.9 µM
14 | CC(C)/C=N\n1c(N)c(C#N)c(C#N)c1C(C)C | > 100 µM | > 100 µM | > 100 µM | > 100 µM | > 100 µM | – | 66.3 µM | > 100 µM | > 100 µM | > 100 µM | > 100 µM | 97.8 µM
15 | CCC(=O)COc1ccc(NC(NC(=O)C(C(F)(F)F)C(F)(F)F)(C(F)(F)F)C(F)(F)F)cc1 | > 100 µM | > 100 µM | > 100 µM | > 100 µM | 56.1 µM | > 100 µM | 42.7 µM | 37.1 µM | 61.7 µM | > 100 µM | – | 74.1 µM
16 | CC(=O)O[C@H]1C(=O)[C@@]2(C)[C@H]([C@H](OC(=O)C3CCCCC3)[C@]3(O)C[C@H](OC(=O)[C@H](O)[C@@H](NC(=O)C4CCCCC4)C4CCCCC4)C(C)=C1C3(C)C)[C@]1(OC(C)=O)CO[C@@H]1C[C@@H]2O | 25 µM | 4.42 µM | 1.66 µM | 0.121 µM | – | 8.55 µM | 5.68 µM | 9.67 µM | 6.97 µM | 1.3 µM | 14.8 µM | 5.03 µM
17 | Cc1ccc(S(=O)(=O)NNC(=S)Nc2cccc3ccccc23)cc1 | > 100 µM | > 100 µM | > 100 µM | > 100 µM | > 100 µM | > 100 µM | > 100 µM | > 100 µM | > 100 µM | > 100 µM | > 100 µM | –
18 | COc1cc2cc(C(=O)N3CC(CCl)c4ccc(NCCN)cc43)[nH]c2c(OC)c1OC (stereo not drawn) | – | 4.33 µM | – | 6.03 µM | 0.226 µM | 1.4 µM | 1.54 µM | 38.8 µM | 1.12 µM | 6.08 µM | 2.42 µM | 0.881 µM
